Three molecules from article PMC4459817, “Vasculotide reduces endothelial permeability and tumor cell extravasation in the absence of binding to or agonistic activation of Tie2” (EMBO Molecular Medicine, 2015) can be followed below.

For one assay, the system named is Tie2+ ECs (HMVEC-LBl). Nature of the assay: MTS cell viability assay, endothelial cells. Format: cell-based, human. Conditions: for IC50: Homo sapiens, Endothelial cell, 48 h, SU in MTS viability assay, predetermined from dose-response curves, cell line of IC50 not clearly printed. As for the experimental part: TCs were cultured in DMEM High Glucose basal media supplemented with 5% FBS and grown humidified incubators at 37 °C, 21%O2 and 5%CO2 unless otherwise specified. LM2-4 luc is a highly metastatically aggressive variant of the human breast carcinoma MDA-MB-231 cell line (derived through serial in vivo selection of lung metastases from orthotopic implantations in immunodeficient mice) that has been transfected with a firefly luciferase vector (Man et al, 2007; Ebos et al, 2009). HT29luc is a human colon carcinoma cell line also transfected with the luciferase gene (Hackl et al, 2013). SN12luc refers to a luciferase-tagged and highly metastatic clone of a human renal cell carcinoma cell line, SN12-PM6-L1luc (Jedeszko et al, 2015). MeWo is a human melanoma cell line (Ebos et al, 2009).
2. Endothelial cells (ECs)
ECs were grown in humidified incubators at 37 °C, 21%O2 and 5%CO2 unless otherwise specified.
Primary human microvascular ECs derived from adult lung blood vessels (HMVEC-LBl, Lonza CC-2815 or HLMEC ) or neonatal dermal blood vessels (HMVEC-DBl, Lonza CC-2813 or HDMEC) were grown in EBM-2 basal media (Lonza CC-3156), supplemented with EGM-2-MV growth factors (Lonza CC-4147, which includes 5% FBS and 2 ng/mL VEGF). Primary human umbilical vein ECs (HUVECs) were grown on 1% gelatinized plates in F12K media, supplemented with 10% FBS, 0.1 mg/mL heparin sodium, 10 ng/mL EGF, 10 ng/mL VEGF, 5 ng/mL bFGF and penicillin + streptomycin + 2mM L-glutamine (P/S/Glut). Transformed human EA.hy926 and murine MS1 ECs were grown in DMEM + 10% FBS + P/S/Glut (+ HAT for EA.hy926).
3. […]
5,000 LM2-4luc or HMVEC-LBl cells, in 100uL of their regular growth media, were seeded per well on a 96-well plate. […] Absorbances were read at 490nm and background-corrected with reference 560nm readings or acellular treatment-only […]
4. […] Protein concentrations in TC-CM vs. control media were measured using: a Quantikine ELISA kit (R&D Systems DVE00) for human VEGF; a FlowCytomix Multiplex kit (eBioscience BMS810FF) for human IL-6 and IL-8; and a BCA protein assay kit (Thermo Scientific) for total protein.

The subject of the next assay is dermal HMVECs. As to the kind of experiment: modified Boyden chamber, tumor cell-conditioned media (TC-CM) stimulated dextran permeability. Format: cell-based, human. Conditions: 20 ng/mL VT or 400 ng/mL Ang1 vs PBS; paired t-test, n = 11 experimental replicates; Fig4A. As for the experimental part:
To investigate this possibility in vitro, we performed modified Boyden chamber assays where we stimulated ECs with tumor cell-conditioned media (TC-CM)—that is, supplement-reduced EC growth media containing all the cytokines naturally secreted by LM2-4^luc, SN12^luc, or HT29^luc cells over 30 hours of hypoxic incubation (1% O2).
Meta-analyses of treatment effects on dextran permeability (A) and tumor cell migration (B), where each datapoint represents the mean of an independent experiment, averaged over 2–3 biological replicates (inserts) per treatment group and normalized internally within that same experiment.
Endothelial cells (ECs) were grown on cell culture inserts with uncoated 8-μm-pore PET filter membranes to 100% confluency. See Supplementary Fig S4 for detailed timelines. […] Permeability assays: A total of 100 μg of FITC-dextran (Sigma FD-20S) was dispensed into the upper chamber media. After 30 min of thrombin stimulation or 4–6 h of TC-CM stimulation, FITC fluorescence (ex/em = 490/520 nm) was measured from a 50 μl sample of the lower chamber media. […] CMPTX fluorescence from migrated TCs was then quantified from 10× microscopy images using a MATLAB (MathWorks, Natick, MA, USA) script; five images (technical replicates) were analyzed per insert. […]

As for `CCN(CC)CCNC(=O)c1c(C)[nH]c(/C=C2\C(=O)Nc3ccc(F)cc32)c1C` [sunitinib, reference compound], the figures for the IC50 with Tie2+ ECs (HMVEC-LBl) ('VEGF-rich' media (0.5% FBS + 50 ng/mL VEGF)) and in the assay on Tie2+ ECs (HMVEC-LBl) ('normal' media (5% FBS)) were 5 µM and 2 µM, respectively.

In the case of “CHHHRHSF [Vasculotide, 4-armed maleimide-functionalized polyethylene glycol (PEG) backbone to link together four cysteine-capped T7 peptides, that is, CHHHRHSF]”, the “transendothelial macromolecular (dextran) permeability in presence of TC-CM” value in the assay on dermal HMVECs is given as “reduced transendothelial macromolecular permeability (P < 0.05”. In addition, the “interference with SU inhibition of ECs” value in the assay with Tie2+ ECs (HMVEC-LBl) (48 h MTS, VT + SU, Supplementary Fig S2) is listed as “did not interfere with SU inhibition of Tie2^+ ECs”.

B1: recombinant human Ang1 (rhAng1) (ligand, UniProt Q15389 16-498, looked up)
chain: HIGCSNQRRSPENSGRRYNRIQHGQCAYTFILPEHDGNCRESTTDQYNTNALQRDAPHVEPDFSSQKLQHLEHVMENYTQWLQKLENYIVENMKSEMAQIQQNAVQNHTATMLEIGTSLLSQTAEQTRKLTDVETQVLNQTSRLEIQLLENSLSTYKLEKQLLQQTNEILKIHEKNSLLEHKILEMEGKHKEELDTLKEEKENLQGLVTRQTYIIQELEKQLNRATTNNSVLQKQQLELMDTVHNLVNLCTKEGVLLKGGKREEEKPFRDCADVYQAGFNKSGIYTIYINNMPEPKKVFCNMDVNGGGWTVIQHREDGSLDFQRGWKEYKMGFGNPSGEYWLGNEFIFAITSQRQYMLRIELMDWEGNRAYSQYDRFHIGNEKQNYRLYLKGHTGTAGKQSSLILHGADFSTKDADNDNCMCKCALMLTGGWWFDACGPSNLNGMFYTAGQNHGKLNGIKWHYFKGPSYSLRSTTMMIRPLDF
notes: angiopoietin-1, human, recombinant; also called angiopoietin-1; source: bought: R&D Systems (named for the Boyden chamber experiments)
For the molecule B1, the “transendothelial macromolecular (dextran) permeability in presence of TC-CM” value with dermal HMVECs is on record as “reduced transendothelial macromolecular permeability (P < 0.05”.
